In patent US20220331318A1, “USE OF AN MDM2 INHIBITOR FOR THE TREATMENT OF MYELOFIBROSIS” (Novartis AG, priority 2019, published 2022):

How the values were obtained:
JAK3 = JAK3 (Homo sapiens, UniProt P52333); details: at clinically relevant concentrations; cited from earlier work
[1] = Preliminary PK analysis, Phase I/II study of ruxolitinib with siremadlin in myelofibrosis patients; assay type: in vivo, human; details: for Exposure compared with historical single-agent data: combination of ruxolitinib and siremadlin 20 mg QD
Description: (§1) A Randomized, Open-Label, Phase I/II Open Platform Study Evaluating Safety and Efficacy of Novel Ruxolitinib Combination in Myelofibrosis Patients
(§2) The purpose of this study is to investigate the safety, pharmacokinetics and preliminary efficacy of combination treatment of ruxolitinib with siremadlin in MF subjects. The study consists of three parts:
Dose reductions/interruptions were not taken into consideration for this preliminary PK analysis. Nominal times were used.
This study was not specifically designed to investigate the potential for PK drug interactions, however comparative assessment of historical data has been done. A PK DDI between ruxolitinib and siremadlin is unlikely or predicted to be low, based on PBPK analysis.

[2] = tested on: broad panel of 26 kinases; details: tested at 200 nM; cited from earlier work
[3] = tested on: other major CYP enzymes or transporters; details: cited from earlier work
BCRP = target: T1, BCRP (Homo sapiens, UniProt Q9UNQ0); test: BCRP substrate assessment in vitro; assay type: in vitro ADME
T1 sequence (Q9UNQ0 1-655): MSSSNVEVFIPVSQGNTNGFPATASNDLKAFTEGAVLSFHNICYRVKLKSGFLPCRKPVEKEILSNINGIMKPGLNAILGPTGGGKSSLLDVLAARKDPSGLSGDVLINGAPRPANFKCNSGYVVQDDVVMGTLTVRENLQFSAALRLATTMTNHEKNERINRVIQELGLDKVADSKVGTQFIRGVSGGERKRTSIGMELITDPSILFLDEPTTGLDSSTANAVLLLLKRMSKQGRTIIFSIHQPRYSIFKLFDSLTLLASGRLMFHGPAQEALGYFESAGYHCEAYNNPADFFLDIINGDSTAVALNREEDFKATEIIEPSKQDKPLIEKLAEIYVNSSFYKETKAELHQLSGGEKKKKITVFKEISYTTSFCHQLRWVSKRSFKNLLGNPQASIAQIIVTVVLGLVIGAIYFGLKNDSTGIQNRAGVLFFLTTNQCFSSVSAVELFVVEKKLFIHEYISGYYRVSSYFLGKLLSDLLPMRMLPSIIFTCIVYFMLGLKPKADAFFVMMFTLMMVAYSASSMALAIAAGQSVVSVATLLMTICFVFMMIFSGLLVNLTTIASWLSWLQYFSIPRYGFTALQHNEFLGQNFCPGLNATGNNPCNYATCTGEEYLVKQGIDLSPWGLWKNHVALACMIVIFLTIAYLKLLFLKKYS

[4] = tested on: solid and hematological tumors; details: preclinical and clinical PK/PD modeling (Guerreiro et al 2018, Meille et al 2017); cited from earlier work
CYP3A4/5 [5] = test: CYP3A4/5 induction in vitro; assay type: in vitro ADME; details: net effect anticipated rather as an inhibitor than an inducer
CYP3A4 = CYP3A4 (Homo sapiens, UniProt P08684); test: Metabolism by CYP enzymes; assay type: in vitro ADME; details: siremadlin
CYP3A4, sequence (P08684 whole entry): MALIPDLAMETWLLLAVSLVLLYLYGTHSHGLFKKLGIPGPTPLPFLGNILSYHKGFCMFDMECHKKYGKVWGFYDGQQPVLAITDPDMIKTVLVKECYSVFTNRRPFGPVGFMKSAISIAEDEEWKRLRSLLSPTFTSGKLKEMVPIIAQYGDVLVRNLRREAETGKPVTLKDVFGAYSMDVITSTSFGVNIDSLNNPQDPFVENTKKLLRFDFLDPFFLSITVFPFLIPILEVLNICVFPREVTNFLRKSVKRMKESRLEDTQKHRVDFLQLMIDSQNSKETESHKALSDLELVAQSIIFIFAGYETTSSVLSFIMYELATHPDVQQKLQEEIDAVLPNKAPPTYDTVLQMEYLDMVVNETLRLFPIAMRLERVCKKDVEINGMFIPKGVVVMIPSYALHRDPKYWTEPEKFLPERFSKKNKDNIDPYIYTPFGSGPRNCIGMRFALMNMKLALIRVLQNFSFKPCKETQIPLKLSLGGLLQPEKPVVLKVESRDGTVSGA

CYP3A4/5 [6] = test: CYP3A4/5 inhibition in vitro; assay type: in vitro ADME
P-gp = P-gp (Homo sapiens, UniProt P08183); test: P-gp substrate assessment in vitro; assay type: in vitro ADME
P-gp, sequence (P08183 whole entry): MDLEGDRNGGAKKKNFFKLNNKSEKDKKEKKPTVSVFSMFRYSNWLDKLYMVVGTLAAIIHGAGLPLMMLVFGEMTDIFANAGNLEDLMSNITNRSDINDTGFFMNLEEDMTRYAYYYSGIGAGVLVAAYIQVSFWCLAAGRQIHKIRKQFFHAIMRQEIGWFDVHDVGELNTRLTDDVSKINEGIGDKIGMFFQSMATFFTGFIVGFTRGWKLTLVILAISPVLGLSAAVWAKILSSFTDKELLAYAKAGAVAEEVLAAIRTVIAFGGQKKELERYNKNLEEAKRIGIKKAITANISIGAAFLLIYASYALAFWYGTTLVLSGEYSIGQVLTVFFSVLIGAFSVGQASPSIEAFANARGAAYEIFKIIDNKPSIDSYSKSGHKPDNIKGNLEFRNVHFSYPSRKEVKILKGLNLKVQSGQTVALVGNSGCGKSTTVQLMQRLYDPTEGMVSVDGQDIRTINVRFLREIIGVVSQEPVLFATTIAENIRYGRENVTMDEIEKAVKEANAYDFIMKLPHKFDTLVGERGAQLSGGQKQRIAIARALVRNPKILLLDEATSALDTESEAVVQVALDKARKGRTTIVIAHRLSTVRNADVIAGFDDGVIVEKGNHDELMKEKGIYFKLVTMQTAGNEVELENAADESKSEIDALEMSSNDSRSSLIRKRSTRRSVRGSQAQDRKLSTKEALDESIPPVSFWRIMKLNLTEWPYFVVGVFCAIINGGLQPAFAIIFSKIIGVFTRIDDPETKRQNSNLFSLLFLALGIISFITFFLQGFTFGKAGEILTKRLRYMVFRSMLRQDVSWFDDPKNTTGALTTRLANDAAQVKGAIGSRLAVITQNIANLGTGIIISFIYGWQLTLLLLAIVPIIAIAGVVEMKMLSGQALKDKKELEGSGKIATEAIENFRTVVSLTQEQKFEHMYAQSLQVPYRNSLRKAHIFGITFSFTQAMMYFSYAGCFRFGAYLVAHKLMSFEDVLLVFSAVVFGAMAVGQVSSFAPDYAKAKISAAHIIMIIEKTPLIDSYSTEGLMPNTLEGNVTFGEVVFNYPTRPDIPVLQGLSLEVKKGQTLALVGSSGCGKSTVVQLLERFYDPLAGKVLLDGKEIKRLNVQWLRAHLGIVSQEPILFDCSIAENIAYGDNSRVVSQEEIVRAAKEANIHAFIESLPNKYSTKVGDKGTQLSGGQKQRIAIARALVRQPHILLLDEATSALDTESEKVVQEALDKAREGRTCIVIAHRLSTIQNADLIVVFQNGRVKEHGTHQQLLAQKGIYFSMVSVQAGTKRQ

AML subjects = test: Phase I study HDM201X2101, single-agent siremadlin in solid tumors or hematologic malignancies (R/R AML); assay type: in vivo, human
Description: In this study, the selection of the siremadlin dose and regimen is based on the currently available preclinical and clinical safety, efficacy, PK and PK/PD modeling information from the phase I study HDM201X2101, a dose escalation and expansion study of single-agent siremadlin in patients with solid tumors or hematologic malignancies (R/R AML). At the time of data cut-off (15 Jan. 2018), 199 subjects have been treated applying various dosing regimens: 115 subjects with solid and 84 patients with hematological tumors. Safety and efficacy data from this trial in AML subjects was used to determine a recommended Phase 2 dose regimen of 45 mg once a day (QD) from day 1 to day 7 of a 28-day cycle (regimen 2C) which is disclosed in WO/2018/178925 (incorporated herewith by reference), At this dose regimen, Complete Response/Complete Response with incomplete blood count recovery (CR/CRi) were respectively 2/4 subjects out of 24 (25%).

myelofibrosis patients = test: Safety (DLTs, SAEs), cohort 1 of Phase I/II study of siremadlin in combination with ruxolitinib in myelofibrosis patients; assay type: in vivo, human; details: 7 patients, cohort 1, 20 mg Siremadlin in combination with Ruxolitinib
Description: as §1, §2
Incidence and severity of dose limiting toxicity (DLTs) within the first 2 treatment cycles in Part 1 of the study
1 patient potentially not evaluable due to Siremadlin interruption within first 2 cycles of treatment. PK DDI between ruxolitinib and Siremadlin is unlikely or predicted to be low, based on PBPK analysis. As per statistical model the dose of Siremadlin can be increased to 30 mg or 40 mg D1-D5 in the next cohort.

[7] = AML, 45 mg QD day 1 to day 7 of a 28-day cycle (regimen 2C)

JAK3, sequence (P52333 whole entry): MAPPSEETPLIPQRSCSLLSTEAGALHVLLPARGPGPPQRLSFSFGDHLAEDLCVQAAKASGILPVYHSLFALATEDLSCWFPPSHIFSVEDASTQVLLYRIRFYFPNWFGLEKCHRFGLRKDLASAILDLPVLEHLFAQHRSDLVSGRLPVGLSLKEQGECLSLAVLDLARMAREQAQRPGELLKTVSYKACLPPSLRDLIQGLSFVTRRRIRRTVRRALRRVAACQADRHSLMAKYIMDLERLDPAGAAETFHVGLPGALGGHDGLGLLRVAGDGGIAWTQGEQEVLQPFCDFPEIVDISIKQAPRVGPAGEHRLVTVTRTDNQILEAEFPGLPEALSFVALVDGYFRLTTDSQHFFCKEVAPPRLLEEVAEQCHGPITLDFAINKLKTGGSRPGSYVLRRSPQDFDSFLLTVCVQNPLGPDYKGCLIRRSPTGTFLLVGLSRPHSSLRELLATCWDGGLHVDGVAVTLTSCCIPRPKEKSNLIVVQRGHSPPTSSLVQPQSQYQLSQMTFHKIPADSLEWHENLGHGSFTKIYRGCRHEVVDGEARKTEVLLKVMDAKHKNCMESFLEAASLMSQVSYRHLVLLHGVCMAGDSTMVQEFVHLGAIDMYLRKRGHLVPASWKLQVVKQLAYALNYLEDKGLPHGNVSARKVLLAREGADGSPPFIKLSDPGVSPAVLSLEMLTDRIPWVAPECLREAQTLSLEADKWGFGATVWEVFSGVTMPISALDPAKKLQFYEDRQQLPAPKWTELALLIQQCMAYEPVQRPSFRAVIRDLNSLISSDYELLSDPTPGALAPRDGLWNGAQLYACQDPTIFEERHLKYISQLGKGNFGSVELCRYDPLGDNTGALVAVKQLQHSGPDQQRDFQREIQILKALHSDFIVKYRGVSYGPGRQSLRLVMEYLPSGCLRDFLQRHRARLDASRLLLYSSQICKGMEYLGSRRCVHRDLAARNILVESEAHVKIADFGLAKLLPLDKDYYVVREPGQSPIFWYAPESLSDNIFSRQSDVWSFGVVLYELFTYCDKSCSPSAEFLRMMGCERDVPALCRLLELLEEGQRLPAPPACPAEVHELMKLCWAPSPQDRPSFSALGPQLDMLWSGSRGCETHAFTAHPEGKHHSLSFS

In the case of `N#CC[C@H](C1CCCC1)n1cc(-c2ncnc3[nH]ccc23)cn1` [ruxolitinib, (R)-3-(4-(7H-pyrrolo[2,3-d]pyrimidin-4-yl)-1H-pyrazol-1-yl)-3-cyclopentylpropanenitrile], the “inhibition of JAK3” value (JAK3) is listed as “does not inhibit”, the “Exposure compared with historical single-agent data” value ([1]; MF patients) is listed as “within the exposure range of values observed previously” and the “accumulation upon repeated dosing” value ([1]; MF patients, ruxolitinib 10, 15 or 20 mg BID with siremadlin) is listed as “little accumulation”. For the same molecule, the half-life ([1]; human, in vivo, oral, 20 mg) was 3 to 4 h, the “inhibition of a broad panel of 26 kinases” value [2] was less than 30% and the “capacity to inhibit other major CYP enzymes or transporters” value [3] was “little or no capacity to inhibit”.
For `COc1ncc(-c2nc3c(n2C(C)C)[C@H](c2ccc(Cl)cc2)N(c2cc(Cl)cn(C)c2=O)C3=O)c(OC)n1` [siremadlin, (S)-5-(5-Chloro-1-methyl-2-oxo-1,2-dihydro-pyridin-3-yl)-6-(4-chloro-phenyl)-2-(2,4-dimethoxy-pyrimidin-5-yl)-1-isopropyl-5,6-dihydro-1H-pyrrolo[3,4-d]imidazol-4-one], the BCRP substrate (BCRP) is given as “substrate”, the “anti-tumor activity on reducing application from 7 to 5 consecutive days per 28-day cycle” value [4] is given as “maintains equivalent anti-tumor activity” and the “Exposure compared with historical single-agent data” value ([1]; MF patients) is given as “comparable to exposures observed previously”. For the same molecule, the “induction of CYP3A4/5” value (CYP3A4/5 [5]) was “inducer”, the metabolizing enzyme (CYP3A4) was “predominantly metabolized by CYP3A4” and the “inhibition of CYP3A4/5” value (CYP3A4/5 [6]) was “time-dependent inhibitor and a reversible inhibitor”. For the same molecule, the P-gp substrate (P-gp) was “substrate”, the “Complete Response (CR)” value (AML subjects; [7]) was 2 subjects out of 24 and the “Complete Response with incomplete blood count recovery (CRi)” value (AML subjects; [7]) was 4 subjects out of 24. For the same molecule, the CR/CRi rate (AML subjects; AML, 45 mg QD day 1 to day 7 of a 28-day cycle (regimen 2C), 24 subjects) was 25%, the “dose-limiting toxicity (DLT)” value (AML subjects; hematological tumor patients, regimen 2C) was “tumor lysis syndrome (TLS)” and the “severity of adverse events” value (AML subjects; hematological tumor patients, regimen 2C, cytopenias most commonly observed) was “mild to moderate in severity, reversible and manageable”. The “most frequently reported adverse drug reactions in clinic” value (AML subjects; single agent) was “hematological toxicities including thrombocytopenia, neutropenia and anemia”, the DLTs (myelofibrosis patients) was “no DLTs” and the “on treatment SAEs” value (myelofibrosis patients) was “no on treatment SAEs”.
